“And” between values parts separate entries of the source, which are not always exact repeats. Equal values may be shown once. Read-outs that look alike come from different tables or passages of the source.
Columns and labels:
5-HT2B receptor = 5-HT2B receptor (Homo sapiens (Human), UniProt P41595); assay: FLIPR Ca2+ flux functional assay at 5-HT2B (HEK293); conditions: for 5-HT2B % Act @ Max Conc.: HEK293, at max concentration
human 5-HT2C receptor = human 5-HT2C receptor (Homo sapiens (Human), UniProt P28335); assay: FLIPR Ca2+ flux functional assay at 5-HT2C (Eurofins DiscoverX); type: cell-based; conditions: Ca2+ flux, human 5-HT2C; for 5-HT2C % Act @ Max Conc.: at max concentration; for EC50: read-out: 5-HT2C EC50
Sequence of human 5-HT2C receptor (P28335 whole entry, looked up): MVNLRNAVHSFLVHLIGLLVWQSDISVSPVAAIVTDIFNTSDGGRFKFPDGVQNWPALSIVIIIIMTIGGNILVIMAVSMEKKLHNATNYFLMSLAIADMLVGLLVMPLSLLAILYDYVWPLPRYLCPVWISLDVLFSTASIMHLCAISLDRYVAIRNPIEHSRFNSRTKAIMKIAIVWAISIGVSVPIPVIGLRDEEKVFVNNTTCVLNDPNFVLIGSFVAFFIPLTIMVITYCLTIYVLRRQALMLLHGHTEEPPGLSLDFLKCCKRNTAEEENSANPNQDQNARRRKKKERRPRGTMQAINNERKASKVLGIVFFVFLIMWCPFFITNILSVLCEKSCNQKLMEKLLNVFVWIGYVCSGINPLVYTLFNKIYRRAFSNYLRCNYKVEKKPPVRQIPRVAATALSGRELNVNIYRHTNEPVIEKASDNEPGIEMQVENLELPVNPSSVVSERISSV
Procedure: Functional Assays at 5-HT2C Receptors. […] Probenecid was prepared fresh. Cells were loaded with dye prior to testing and incubated at 37° C. for 30-60 minutes. After dye loading, cells were removed from the incubator and 10 μL HBSS/20 mM Hepes was added. 3× vehicle was included in the assay buffer. Cells were incubated for 30 mins at room temperature in the dark to equilibrate plate temperature. Intermediate dilution of sample stocks was performed to generate 4× sample in assay buffer. Compound agonist activity was measured on a FLIPR Tetra (MDS). Calcium mobilization was monitored for 2 minutes and 10 μL 4× sample in HBSS/20 mM Hepes was added to the cells 5 seconds into the assay.

5-HT2A receptor [1] = molecular target: T1, 5-HT2A receptor (Homo sapiens (Human), UniProt P28223); assay: FLIPR Ca2+ flux functional assay at 5-HT2A (HEK293); conditions: for 5-HT2A % Act @ Max Conc.: HEK293, at max concentration
5-HT2A receptor [2] = molecular target: T1, 5-HT2A receptor; assay: 5-HT2A receptor radioligand binding with [3H]ketanserin; conditions: read-out: Ki at 5-HT2A Receptor (nM) ([3H]ketanserin); HEK293 stable cell line, 1 nM [3H]ketanserin, 1 h, 25 °C
C57BL/6 mice [3] = assay: Manual head twitch response (HTR) assay in mice; type: in vivo; conditions: SC; for ED50: 20 min observation
Procedure: Agonists of the 5-HT2A receptor are well known to induce this effect in rodents and the potency of this HTR is correlated with hallucinogenic potency in humans.
(§1) Animals. Adult male C57BL/6 mice aged 8-10 weeks (body weight 20-25 g) were used in these experiments. Animals were housed under controlled temperatures and 12-hour light/dark cycles (lights on between 07:00-19:00 h), with ad libitum food and water. The protocol was approved by the Institutional Animal Care and Use Committee at the study site. This study was carried out in strict accordance with the recommendations in the Guide for the Care and Use of Laboratory Animals of the National Institutes of Health. All efforts were made to minimize suffering.
Drugs and Drug administration. DOI was commercially obtained. All other compounds were synthesized as described above. All drugs were administered subcutaneously (SC) dissolved in saline vehicle (or saline acidified with 1-2 molar equivalents HCl to form the salt in situ for freebase compounds) and at a volume of 10 mL/kg. Drugs were administered at 4 or 5 doses per compound, using n=6 animals/group. Doses were calculated on the basis of the freebase form, except for DOT, which was calculated based on the HCl salt.
Procedure. Mice were administered one dose of the drug (or vehicle) SC and immediately placed into a small open field for behavioral observation. Animals were observed continuously for 20 mins and the number of head twitches (HTs) were counted by an observer blind to the treatment condition.
(§2) Statistical Analysis. Analysis was performed using GraphPad Prism 9. Dose-response curves were fit via non-linear regression using the Gaussian 2020 function in Prism in order to determine the ED50 and Emax for each compound.

5-HT1A receptor = 5-HT1A receptor (Homo sapiens (Human), UniProt P08908); assay: FLIPR Ca2+ flux functional assay at 5-HT1A (CHO cells); conditions: for 5-HT1A % Act @ Max Conc.: at max concentration
C57BL/6 mice [4] = assay: Automated (video tracking) head twitch response (HTR) assay in mice; type: in vivo; conditions: SC; for ED50: 20 min recording; for Most Efficacious Dose; mg/kg: dose giving the most HTR
Procedure: Disclosed compounds were tested for their ability to induce a head twitch response (HTR) in mice using an automated video tracking procedure, with the results summarized in Table 5. […] The phenyl Compound 44 was substantially more efficacious at inducing HTR than its pyridine counterpart Compound 29, in agreement with the generally lower maximal efficacy of the disclosed pyridine compounds for signaling through 5-HT2A receptors.
as §1
Drugs and Drug Administration. […] was commercially obtained. Disclosed compounds were synthesized as described above. They were administered subcutaneously (SC) dissolved in saline (or saline acidified with 1-2 molar equivalents HCl to form the salt in situ for freebase compounds) at a volume of 10 mL/kg. Five doses were tested, with N=5-8 animals/group. Doses were calculated on the basis of the freebase, except for DOI, which was calculated based on the HCl salt.
Procedure. Mice were administered one dose of the drug and immediately placed into a small open field for behavioral observation. High-speed video of animals' behavior was captured continuously for 20 min. Video recordings were imported into an image processing software, which detects multiple points of interest on each animal's body, including the left and right ear. HTR events were defined as periodic deviations of ear locations from temporally averaged ear locations. Predefined thresholds for magnitude and frequency of location deviations were used to filter […] events from random head movements. The method was validated by comparing detected events with manual (human) observations and found to have an accuracy >95%. The total number of HTR events counted during the 20-min recording were determined for each animal at each dose.
as §2

[5] = Mus musculus, 20 min, read-out: ED50
[6] = read-out: 5-HT2B EC50, Ca2+ flux, HEK293
[7] = read-out: 5-HT2A EC50, Ca2+ flux, HEK293
[8] = read-out: 5-HT1A EC50, Ca2+ flux, CHO cells

Sequence of 5-HT2B receptor (P41595 whole entry, looked up): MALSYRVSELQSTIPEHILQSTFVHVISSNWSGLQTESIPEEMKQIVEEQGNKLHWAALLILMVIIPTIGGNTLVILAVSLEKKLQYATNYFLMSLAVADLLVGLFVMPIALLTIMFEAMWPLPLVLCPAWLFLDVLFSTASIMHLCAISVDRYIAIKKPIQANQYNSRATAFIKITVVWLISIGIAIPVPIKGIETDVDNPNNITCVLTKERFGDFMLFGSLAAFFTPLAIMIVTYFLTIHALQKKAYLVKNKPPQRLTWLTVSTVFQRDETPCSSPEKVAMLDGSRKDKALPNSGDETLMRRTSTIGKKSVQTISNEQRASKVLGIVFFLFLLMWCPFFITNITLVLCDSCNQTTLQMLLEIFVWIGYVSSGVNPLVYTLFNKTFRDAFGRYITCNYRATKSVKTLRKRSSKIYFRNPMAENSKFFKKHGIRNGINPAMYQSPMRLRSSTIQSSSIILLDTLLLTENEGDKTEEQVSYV

SMILES	5-HT2B % Act @ Max Conc. (5-HT2B receptor; Ca2+ flux) [%]	5-HT2C % Act @ Max Conc. (human 5-HT2C receptor) [%]	EC50 (human 5-HT2C receptor) [nM]	EC50 (5-HT2A receptor [1]) [nM]	5-HT2A % Act @ Max Conc. (5-HT2A receptor [1]; Ca2+ flux)	Ki (5-HT2A receptor [2]) [nM]	ED50 (C57BL/6 mice [3]; [5]) [mg/kg]	Emax (HTR counts/20 min) (C57BL/6 mice [3])	EC50 (5-HT1A receptor) [nM]	5-HT1A % Act @ Max Conc. (5-HT1A receptor; Ca2+ flux, CHO cells) [%]	EC50 (5-HT2B receptor; [6]) [nM]	EC50 (5-HT2A receptor [1]; [7]) [nM]	EC50 (5-HT1A receptor; [8]) [nM]	EC50 (5-HT2B receptor) [nM]	ED50 (C57BL/6 mice [4]; [5]) [mg/kg]	Emax (HTR counts/20 min) (C57BL/6 mice [4])	# HTR/20 min at Most Efficacious Dose (C57BL/6 mice [4]) [HTR/20 min]	Most Efficacious Dose; mg/kg (C57BL/6 mice [4])	ED50 (C57BL/6 mice [4]) [mg/kg]	ED50 (C57BL/6 mice [3]) [mg/kg]
CCCCCc1cc(OC)c(CC(N)CC)nc1OC (stereo not shown) [Compound 1, 1-(3,6-dimethoxy-5-pentylpyridin-2-yl)butan-2-amine]	0.18	44.38	5470	115	25% and 25.3%	40	0.897	18.78	20200	188										
COc1cc(C(F)(F)F)c(OC)cc1CCN [Compound 2C-TFM, 2C-TFM, reference compound]	82.0	88.2	0.593		81.5%	15.8				−0.647	16.3	1.05	> 10000							
CCCCCc1cc(OC)c(CCN)nc1OC [Compound 7, 2-(3,6-dimethoxy-5-pentylpyridin-2-yl)ethan-1-amine]	11.56	92.53	16.2	20	82.88%	6.32			51900	61.95				> 10000	4.88	24.61	23.25	(1) mg/kg		
CCC(N)Cc1nc(OC)c(Cl)cc1OC (stereo not shown) [Compound 18, 1-(5-chloro-3,6-dimethoxypyridin-2-yl)butan-2-amine]	2.75	36.76	2250	370	70.92%	1200			> 100000	1.33				> 10000			33.12	(10) mg/kg		
COc1cc(CCNCc2ccccc2OC)c(OC)cc1C [Compound 25D-NBOMe, 25D-NBOMe, reference compound]	43.3	91.5	< 0.508		97.5%	2.52				−4.43	1.27	0.251	> 10000							
COc1cc(CCCCCC(F)(F)F)c(OC)nc1CCN [Compound 30, 2-(3,6-dimethoxy-5-(6,6,6-trifluorohexyl)pyridin-2-yl)ethan-1-amine]	23.14			65	73.21%	6.01			91600	55.61				1670	5.87	16.80	17.5	(3.2) mg/kg		
CCCCc1cc(OC)c(CCN)nc1OC [Compound 31, 2-(5-butyl-3,6-dimethoxypyridin-2-yl)ethan-1-amine]	7.29			7.88	90.63%	19.7			> 100000	21.32				> 10000	1.29	43.42	43.38	(3.2) mg/kg		
COc1cc(CCCCF)c(OC)nc1CCN [Compound 32, 2-(5-(4-fluorobutyl)-3,6-dimethoxypyridin-2-yl)ethan-1-amine]	−0.69	99.77	22.8	20.8	81.86%	103			> 100000	0.5				> 10000						
CCCc1cc(OC)c(CCN)nc1OC [Compound 36, 2-(3,6-dimethoxy-5-propylpyridin-2-yl)ethan-1-amine]	21.53			4.14	88.19%	35.4			> 100000	3.03				184	0.972	48.79	48.12	(10) mg/kg		
CCCCCCc1cc(OC)c(CC(C)N)nc1OC (stereo not shown) [Compound 38, 1-(5-hexyl-3,6-dimethoxypyridin-2-yl)propan-2-amine]	4.76	79.49	159	11.4	83.97%	3.1			56900	123.88				> 10000						
COc1cc(CC(C)N)c(OC)cc1I (stereo not shown) [DOI, reference compound]	86.3	92.6	0.818		106%			35.7		−2.47	4.88					82.02	81.5	(3.2) mg/kg	0.531	0.428

— patent publication US20250270173A1, “PYRIDINE DERIVATIVES FOR TREATING PSYCHIATRIC DISORDERS” (GILGAMESH PHARMACEUTICALS, INC., priority 2022, published 2025)
